Results on 2 compounds are retold here after article PMC12449377, “Psychedelic-like effects induced by 2,5-dimethoxy-4-iodoamphetamine, lysergic acid diethylamide, and psilocybin in male and female C57BL/6J mice” (Psychopharmacology, 2025).

The target of assay [1] is T1, 5-HT1A (Mus musculus, UniProt Q64264).
T1 construct: tissue BioIVT; host or cells: whole C57BL/6 mouse brain minus cerebellum, male and female
T1 sequence (Q64264 1-421): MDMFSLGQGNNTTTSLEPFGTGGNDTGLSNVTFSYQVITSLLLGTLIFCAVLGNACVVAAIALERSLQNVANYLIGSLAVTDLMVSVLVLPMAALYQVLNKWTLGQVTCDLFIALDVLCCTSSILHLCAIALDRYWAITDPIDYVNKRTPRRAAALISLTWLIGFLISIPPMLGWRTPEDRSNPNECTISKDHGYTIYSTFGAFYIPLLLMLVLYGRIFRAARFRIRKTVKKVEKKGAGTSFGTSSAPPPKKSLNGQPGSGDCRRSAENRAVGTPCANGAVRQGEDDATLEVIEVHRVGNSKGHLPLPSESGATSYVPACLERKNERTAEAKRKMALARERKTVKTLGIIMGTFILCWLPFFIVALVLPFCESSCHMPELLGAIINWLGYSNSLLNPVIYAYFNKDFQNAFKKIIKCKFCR
As to conditions: previously determined, used to calculate Ki; read-out: Kd of radioligand at 5-HT1A; cited from earlier work.

The target in assay [2] is T2, 5-HT2A (Mus musculus, UniProt P35363).
T2 construct: tissue BioIVT; host or cells: whole C57BL/6 mouse brain minus cerebellum, male and female
T2 sequence (P35363 whole entry): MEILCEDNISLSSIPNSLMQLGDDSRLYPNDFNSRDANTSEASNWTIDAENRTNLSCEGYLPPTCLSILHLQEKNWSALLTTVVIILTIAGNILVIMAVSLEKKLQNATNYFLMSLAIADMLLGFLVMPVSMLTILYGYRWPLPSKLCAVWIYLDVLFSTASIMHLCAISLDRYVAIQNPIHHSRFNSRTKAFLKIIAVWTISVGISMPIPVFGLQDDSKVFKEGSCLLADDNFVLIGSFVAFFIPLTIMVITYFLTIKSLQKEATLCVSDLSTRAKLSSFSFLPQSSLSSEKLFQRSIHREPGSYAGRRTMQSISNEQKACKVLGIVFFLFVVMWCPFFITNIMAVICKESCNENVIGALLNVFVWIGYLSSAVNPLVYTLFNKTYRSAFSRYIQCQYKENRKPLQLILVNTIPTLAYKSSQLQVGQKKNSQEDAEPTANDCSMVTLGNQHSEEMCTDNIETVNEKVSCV
The assay is described as follows: Competition binding vs [3H]M100907 in mouse brain membranes. As to the method: (§1) Competition binding studies were conducted in mouse brain tissue as previously described (Glatfelter et al. [2022b]). Briefly, the experiments utilized membranes prepared from whole C57BL/6 mouse brain minus cerebellum (BioIVT, Westbury, NY, USA). […] We assessed the ability of test drugs to compete for [^3H]M100907 binding at 5-HT2A (1 nM) or [^3H]8-OH-DPAT binding at 5-HT1A (0.5 nM). Radioligands were purchased commercially (PerkinElmer, Boston, MA, USA). Nonspecific binding was determined using 10 µM ketanserin for 5-HT2A and serotonin for 5-HT1A. All data represent 3 experiments performed in triplicate.
(§2) Concentration-response data were fit to a single site non-linear regression model. For the HTR studies, potencies were determined from the ascending limb of the dose-response curves using ED50 potency values from [agonist] vs. response (variable slope, four parameter) least squares fit non-linear regression analyses, whereas efficacy was defined by the top output parameter or Emax from the aforementioned analyses. […] Best-fit values for ED50 and Emax from non-linear regression analyses were compared by extra sum-of-squares F tests. Mean effects for each behavioral endpoint were compared using two-way ANOVA (dose x sex), followed by Sidak’s multiple comparisons post-hoc test. Mean effects for pooled mouse behavioral data were compared via Welch’s ANOVA with Dunnett’s T3 post-hoc test, comparing all doses to saline vehicle controls (0 mg/kg). Alpha was set to 0.05 for all analyses.

Assay [3] has as its target T1, 5-HT1A. The assay is described as follows: Competition binding vs [3H]8-OH-DPAT in mouse brain membranes. As to the method:
as §1, §2

Usually Kd stands for the constant that tells how readily two partners part at equilibrium. Turning to `CCCN(CCC)C1CCc2cccc(O)c2C1` (stereo not shown) [[^3H]8-OH-DPAT], the Kd in assay [1] was 1.03 nM.
One may read the Ki as the equilibrium dissociation constant of an inhibitor or competing ligand from its target. Lower therefore signals a stronger hold on the target. For `CN(C)CCc1c[nH]c2cccc(O)c12` [Psilocin], the Ki in assay [2] (5-HT2A binding affinity (Ki), males and females, male and female mouse brain membranes, summary statement) was 1 to 100 nM; in assay [2] ([3H]M100907 Binding ♀ m5-HT2A Ki, female mouse brain membranes), 113 nM; in assay [2] ([3H]M100907 Binding ♂ m5-HT2A Ki, male mouse brain membranes) it was 110 nM; in assay [3] (5-HT1A binding affinity (Ki), males and females, male and female mouse brain membranes, summary statement), 1 to 100 nM; in assay [3] ([3H]8-OH-DPAT Binding ♀ m5-HT1A Ki, female mouse brain membranes), 100 nM; in assay [3] ([3H]8-OH-DPAT Binding ♂ m5-HT1A Ki, male mouse brain membranes) it was 113 nM.
